# Results from patent US20170368037A1, “PHARMACEUTICAL COMPOSITION FOR PROMOTION OF FIBRINOLYSIS” (Daiichi Sankyo Company, Limited, priority 2014, published 2017).
# Key:
# [1] = test system: fibrinolysis induced by tPA in human plasma; experiment: Fibrinolysis assay (clot lysis time induced by tPA in human plasma), Example 1; type: biochemical; conditions: tPA 180 ng/mL, edoxaban 18.8 ng/mL to 300 ng/mL, vs control
# Protocol: Edoxaban was dissolved in dimethyl sulfoxide (hereinafter, also referred to as “DMSO”) (Wako Pure Chemical Industries, Ltd.) to prepare a 10 mM solution, which was then stored at −30° C. Before use, the frozen product was thawed and diluted with DMSO and saline (Otsuka Pharmaceutical Factory, Inc.) (DMSO concentration in test substance solution: 0.96%, final DMSO concentration in reaction system: 0.08%).
# Hepes buffer: Hepes (Sigma-Aldrich, Co. LLC.) and NaCl (Nacalai Tesque Inc.) were dissolved at 20 mM and 140 mM, respectively, in distilled water, and the solution was adjusted to pH 7.4 using a 1 mol/L sodium hydroxide solution (Nacalai Tesque Inc.). […]
# (§1) 70 μL of the human plasma sample (containing tPA), 10 μL each of varying concentrations of the edoxaban solution, and 20 μL of the PPP reagent were added to each well of a 96-well plate (Sumilon Proteosave SS 96F plate, MS-8296F). […] Absorbance at 405 nm was measured every 30 seconds using SpectraMAX 384 Plus (Molecular Devices, LLC.) prewarmed to 37° C. The time for the absorbance to return to ½ of the peak from the time to reach ½ of the peak was calculated using SoftMax Pro 5.4.1 (Molecular Devices, LLC.) and used as clot lysis time. […]
# Two experiments were conducted on each of 3 lots of human plasma (n=6). […] The calculated P value was rounded off and indicated by three decimal places. […]
# [2] = test system: fibrinolysis induced by tPA in human plasma; experiment: Fibrinolysis assay (clot lysis time in human plasma containing tPA and TM), Example 2; type: biochemical; conditions: tPA 180 ng/mL, TM 0.1 nM, vs control
# Protocol: Edoxaban was dissolved in DMSO to prepare a 10 mM solution, which was then stored at −30° C. Before use, the frozen product was thawed and diluted with DMSO and saline (DMSO concentration in test substance solution: 1.92%).
# PCI (Sigma-Aldrich, Co. LLC.) was dissolved in Hepes buffer to prepare a 4.8 mg/mL solution, which was then stored at −30° C. Before use, the frozen product was thawed and diluted with Hepes buffer.
# Hepes buffer, tPA solution, and PPP reagent were prepared in the same way as in Example 1(2). […]
# as §1, with “tPA and TM), 5” for “tPA), 10”, “solution, 5 μL of PCI,” for “solution,”, “Plus” for “Plus (Molecular Devices, LLC.)”, “decrease” for “return”, “5.4.1” for “5.4.1 (Molecular Devices, LLC.)”
# Two experiments were conducted on each of 3 lots of human plasma (n=6). The basic statistics (mean, standard deviation, and standard error) of the clot lysis time were calculated, and the results were indicated by mean±standard error (SEM). […] Concentration dependence was evaluated by Spearman's rank correlation coefficient hypothesis test. […]
Molecule,clot lysis time [1],clot lysis time ([2]; edoxaban alone 150 and 300 ng/mL),clot lysis time ([2]; PCI alone 0.3 to 3 μg/mL)
"CN1CCc2nc(C(=O)N[C@@H]3C[C@@H](C(=O)N(C)C)CC[C@@H]3NC(=O)C(=O)Nc3ccc(Cl)cn3)sc2C1 [Edoxaban, N-(5-chloropyridin-2-yl)-N′-[(1S,2R,4S)-4-(dimethylcarbamoyl)-2-(5-methyl-4,5,6,7-tetrahydro[1,3]thiazolo[5,4-c]pyridine-2-carboxamido)cyclohexyl]oxamide]",significantly shortened the clot lysis time in a concentration-dependent manner,significantly shortened the clot lysis time in a concentration-dependent manner,–
"PCI: carboxypeptidase inhibitor from potato tuber, a TAFIa inhibitor (Sigma-Aldrich) (QQHADPICNKPCKTHDDCSGAWFCQACWNSARTCGPYVG; UniProt P01075 1-39, looked up)",–,–,significantly shortened the clot lysis time in a concentration-dependent manner
